Measurements from patent US12060349B2, “Glucosylceramide synthase inhibitors” (Genzyme Corporation, priority 2012, dated 2024).
Read-outs that look alike come from different tables or passages of the source.

How the values were obtained:
B16 mouse melanoma cells = experiment: cell viability in the B16 cell-based assay (Viability, B16 IC50)
In short: (§1)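 Both lines undergo the phenotypic GM3 assay, and viability is recorded from that same cell-based run.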

C32 human melanoma cells = experiment: cell viability in the C32 cell-based assay (Viability, C32 IC50); conditions: concentration causing 50% cell death, values greater than 10 represent a lack of cell death
In short: as §1

[1] = molecular target: T1, glucosylceramide synthase (Homo sapiens, UniProt Q16739); experiment: microsomal assay measuring conversion of ceramide to glucosylceramide by HPLC (GCS IC50); assay type: biochemical; conditions: concentration causing 50% inhibition of glucosylceramide synthase activity
T1 construct: Microsomes were isolated from A375 human melanoma cells; endogenous in cells; host or cells: A375 human melanoma cells (microsomal fraction, 100,000 g pellet)
T1 sequence (Q16739 1-394): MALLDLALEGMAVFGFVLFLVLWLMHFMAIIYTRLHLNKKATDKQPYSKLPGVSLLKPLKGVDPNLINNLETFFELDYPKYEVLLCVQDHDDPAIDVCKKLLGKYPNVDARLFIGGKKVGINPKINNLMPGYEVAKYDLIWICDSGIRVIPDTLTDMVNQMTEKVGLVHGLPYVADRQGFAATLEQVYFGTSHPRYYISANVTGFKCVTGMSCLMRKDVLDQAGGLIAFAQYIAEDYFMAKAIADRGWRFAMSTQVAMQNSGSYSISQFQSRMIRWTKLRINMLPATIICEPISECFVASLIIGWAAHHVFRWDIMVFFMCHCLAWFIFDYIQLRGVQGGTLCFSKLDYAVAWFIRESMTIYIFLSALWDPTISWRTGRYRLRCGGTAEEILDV
In short: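 Microsomal preparation assayed for glucosylceramide synthase by direct HPLC measurement of ceramide conversion to glucosylceramide. GCS IC50 is the compound concentration giving 50% inhibition of enzyme activity.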

[2] = system: GM3 expression on the cell surface, C32 human melanoma cells; experiment: cell based phenotypic assay, cell surface GM3 by antibody mediated immunofluorescence, C32 (GM3 C32 IC50); conditions: 50% inhibition of GM3 expression on the cell surface
In short: as §1

[3] = system: GM3 expression on the cell surface, B16 mouse melanoma cells; experiment: cell based phenotypic assay, cell surface GM3 by antibody mediated immunofluorescence, B16 (GM3 B16 IC50); conditions: 50% inhibition of GM3 expression on the cell surface
In short: as §1

[4] = Mus musculus, B16, read-out: Viability, B16 IC50
[5] = Homo sapiens, C32, read-out: Viability, C32 IC50, C32 cells
[6] = Homo sapiens, read-out: GM3 C32 IC50, C32 human melanoma cells
[7] = Mus musculus, read-out: GM3 B16 IC50, B16 mouse melanoma cells
[8] = Mus musculus, B16, B16 cells, concentration causing 50% cell death, values greater than 10 represent a lack of cell death, read-out: Viability, B16 IC50
[9] = Homo sapiens, C32, C32 cells, read-out: Viability, C32 IC50
[10] = Homo sapiens, C32 human melanoma cells, read-out: GM3 C32 IC50
[11] = Mus musculus, B16 mouse melanoma cells, read-out: GM3 B16 IC50

Quinuclidin-3-yl (2-(4′-((2-methoxyethoxy)methyl)-[1,1′-biphenyl]-3-yl)propan-2-yl)carbamate [Example 203]
IC50 (B16 mouse melanoma cells; B16 cells, concentration causing 50% cell death, values greater than 10 represent a lack of cell death, read-out: Viability, B16 IC50): ≥ 10 µM
IC50 (C32 human melanoma cells; C32 cells, read-out: Viability, C32 IC50): 1780 nM
IC50 [1]: 29.6 nM
IC50 ([2]; C32 human melanoma cells, read-out: GM3 C32 IC50): 6.53 nM
IC50 ([3]; B16 mouse melanoma cells, read-out: GM3 B16 IC50): 96.3 nM

CC(C)(NC(=O)OC1CN2CCC1CC2)c1ccc(-c2ccc(S(=O)(=O)CC3CC3)cc2)cc1 (centres unmarked) [Example 238, Quinuclidin-3-yl (2-(4′-((cyclopropylmethyl)sulfonyl)-[1,1′-biphenyl]-4-yl)propan-2-yl)carbamate]
IC50 (B16 mouse melanoma cells; [4]): ≥ 10 µM
IC50 (C32 human melanoma cells; [5]): 1000 nM
IC50 [1]: 15.4 nM
IC50 [2, 6]: 4.45 nM
IC50 [3, 7]: 50.1 nM

COCCCOc1cnc(-c2ccc(C(C)(C)NC(=O)OC3CCN4CCC3CC4)cc2)cn1 (centres unmarked) [Example 321, 1-Azabicyclo[3.2.2]nonan-4-yl (2-(4-(5-(3-methoxypropoxy)pyrazin-2-yl)phenyl)propan-2-yl)carbamate]
IC50 (B16 mouse melanoma cells; [8]): ≥ 10 µM
IC50 (C32 human melanoma cells; [9]): 1000 nM
IC50 [1]: 46.1 nM
IC50 [2, 10]: 6.39 nM
IC50 [3, 11]: 108 nM

COCCOc1cccc(-c2ccc(C(C)(C)NC(=O)OC3CN4CCC3CC4)cc2)c1 (centres unmarked) [Example 167, Quinuclidin-3-yl (2-(3′-(2-methoxyethoxy)-[1,1′-biphenyl]-4-yl)propan-2-yl)carbamate]
IC50 (B16 mouse melanoma cells; [4]): ≥ 10 µM
IC50 (C32 human melanoma cells; [5]): 1000 nM
IC50 [1]: 10.4 nM
IC50 [2, 6]: 5.31 nM
IC50 [3, 7]: 109 nM

CC(C)(NC(=O)NC1(C)CCN2CCC1CC2)c1ccc(-c2ccc(C(=O)N3CCOCC3)cc2)cc1 (centres unmarked) [Example 268, 1-(4-Methyl-1-azabicyclo[3.2.2]nonan-4-yl)-3-(2-(4′-(morpholine-4-carbonyl)biphenyl-4-yl)propan-2-yl)urea]
IC50 (B16 mouse melanoma cells; [8]): ≥ 10 µM
IC50 (C32 human melanoma cells; [9]): 1000 nM
IC50 [1]: 166 nM
IC50 [2, 10]: 31.5 nM
IC50 [3, 11]: 648 nM

CC1(NC(=O)C2(F)CCN(c3nccc(COc4ccc(F)cc4)n3)CC2)CN2CCC1CC2 (centres unmarked) [Example 135, 4-Fluoro-1-(4-((4-fluorophenoxy)methyl)pyrimidin-2-yl)-N-(3-methylquinuclidin-3-yl)piperidine-4-carboxamide]
IC50 (B16 mouse melanoma cells; [8]): 8.25 µM
IC50 (C32 human melanoma cells; [9]): 46.4 nM
IC50 [1]: 1.38 nM
IC50 [2, 10]: 0.132 nM
IC50 [3, 11]: 31.7 nM

O=C(N1CCN(c2cccc(-c3ccccc3)c2)CC1)N1CCN2CCC1CC2 [Example 17, (4-([1,1′-Biphenyl]-3-yl)piperazin-1-yl)(1,4-diazabicyclo[3.2.2]nonan-4-yl)methanone]
IC50 (B16 mouse melanoma cells; [8]): ≥ 10 µM
IC50 (C32 human melanoma cells; [9]): ≥ 10000 nM
IC50 [1]: 12200 nM
IC50 [2, 10]: 6360 nM
IC50 [3, 11]: 6310 nM

CCC1(NC(=O)NC(C)(C)C#Cc2ccc(S(=O)(=O)CCC(C)(C)C)cc2)CN2CCC1CC2 (centres unmarked) [Example 338, 1-(4-(4-((3,3-Dimethylbutyl)sulfonyl)phenyl)-2-methylbut-3-yn-2-yl)-3-(3-ethylquinuclidin-3-yl)urea]
IC50 (B16 mouse melanoma cells; [8]): 2.15 µM
IC50 (C32 human melanoma cells; [9]): 1000 nM
IC50 [1]: 4.45 nM
IC50 [2, 10]: 0.984 nM
IC50 [3, 11]: 72.1 nM

COCCOCc1ccc(-c2ccc(C(C)(C)NC(=O)OC3CN4CCC3CC4)cc2)cc1 (centres unmarked) [Example 197, Quinuclidin-3-yl (2-(4′-((2-methoxyethoxy)methyl)-[1,1′-biphenyl]-4-yl)propan-2-yl)carbamate]
IC50 (B16 mouse melanoma cells; [4]): ≥ 10 µM
IC50 (C32 human melanoma cells; [5]): ≥ 10000 nM
IC50 [1]: 32.2 nM
IC50 [2, 6]: 9.67 nM
IC50 [3, 7]: 309 nM

COCCCc1ccc(-c2ccc(C(C)(C)NC(=O)NC3(C)CN4CCC3CC4)cc2)cc1 (centres unmarked) [Example 222, 1-(2-(4′-(3-Methoxypropyl)-[1,1′-biphenyl]-4-yl)propan-2-yl)-3-(3-methylquinuclidin-3-yl)urea]
IC50 (B16 mouse melanoma cells; [8]): ≥ 10 µM
IC50 (C32 human melanoma cells; [9]): ≥ 10000 nM
IC50 [1]: 1.7 nM
IC50 [2, 10]: 0.758 nM
IC50 [3, 11]: 30.7 nM
